These results are taken from patent US6368604B1, “Non-pyrogenic derivatives of lipid A” (priority 1997, dated 2002).

One series concerns mice. Particulars: cited from earlier work.
For the next series, the system named is HIV-1. Particulars: in vivo; cited from earlier work.
For series [1], the system named is human PBMCs. Description: Human PBMC activation assay: TNFα, IL-1β, IL-6 in culture supernatants by capture ELISA. Particulars: human PBMC culture supernatants after stimulation, 1 μg/ml, 8 hr. The class given is cell-based. Here is the method: 50 ml of whole blood is mixed with an equal volume of RPMI (Life Technologies) and PBMCs are isolated by density gradient using lymphocyte separation medium according to the manufacturer's directions (Organon). The PBMCs are washed twice with RPMI then resuspended in 6 ml of ice cold sterile water and placed on ice for 30 sec to lyse the erythrocytes. The osmolarity is adjusted by adding 2 ml of ice cold 3.5% (w/v) NaCl; the PBMCs are harvested by centrifugation, washed with RPMI and resuspended in complete medium (CM; RPMI containing pyruvate, glutamine, PenStrep, and 10% endotoxin-free human AB serum (Life Technologies) at a density of 6×10^6 PBMCs/ml. CM containing the preparations to be assayed are placed into duplicate wells of a 96-well flat bottom culture late (Costar) at double the target final concentration. An equal volume of CM containing the PBMCs then is added to these wells and the culture plates are incubated at 37° C. in 5% CO2 for 8 hr. The supernatants are then removed and stored at […] Quantitation of TNFα, IL-1β, IL-6, MIP-1α, MIP-1β and RANTES in these culture supernatants is achieved by capture ELISA (R&D Systems).
(§1) Quantitation of TNFα, IL-1β, IL-6, MIP-1α and MIP-1β in these culture supernatants was achieved by capture ELISA (R&D Systems).
This observation was reproduced using four unrelated PBMC donors and two separate LPS preparations. […]

Series [2] deals with human PBMCs. The series can be described thus: LPS antagonist activity: TNFα from human PBMCs stimulated with W3110 LPS mixed with test preparation. The class given is cell-based. Particulars: 1 μg/ml mixed with W3110 LPS 10 ng/ml, 8 hr. The method, then:
as §1
W3110 LPS (also cultured at 37° C.) from 1 ng/ml to 100 ng/ml alone and W3110 LPS (10 ng/ml) mixed with synthetic lipid IVA (1 μg/ml) were used as controls.

Series [3] concerns human PBMCs. The series can be described thus: β chemokine (MIP-1α, MIP-1β, RANTES) secretion from human PBMCs, dose and time course, capture ELISA. In kind it is cell-based.
For a further series, the system named is HIV-1BAL. The series can be described thus: Replication of HIV-1BAL in human PBMC-derived monocytes (p24 ELISA). Particulars: 1000, 100 and 10 ng/ml for 24 hours before infection; p24 after a further 19 days. The class given is cell-based. Here is the method:
FIG. 5. Lipid A antagonist, lipid IVA, inhibits HIV replication. PBMCs were treated with synthetic lipid IVA at 1000 ng/ml, 100 ng/ml and 10 ng/ml for 24 hours. The treated cells were subsequently infected with 0.200 ng of HIV-1BAL (Cocchi et al, supra) for 2 hours, washed twice and incubated for a further 19 days. Culture supernatants were then collected and the level of p24 in these supernatants was measured by ELISA (R&D Systems). […] Figure Legend:
To investigate the utility of the aforementioned findings, we investigated whether commercially available synthetic lipid IVA (ICN Inc.) suppressed the replication of HIV-1BAL in human PBMC-derived monocytes. Therefore, PBMCs were obtained as outlined in Section 6, see above, and placed into 12 well culture flat-bottom plate and incubated in CM (see example 1) for […] at 37° C. in 5% Co2. Non-adherent cells were removed and the cells were given fresh media every 2 days. After 6 days, the adherent PBMCs were treated with synthetic lipid IVA at 1000 ng/ml, 100 ng/ml and 10 ng/ml for 24 hours. […] Culture supernatants were then collected and the level of p24 in these supernatants was measured by ELISA (R&D Systems).
PBMC-derived monocytes were obtained as outlined in Section 8, see above. […] Culture supernatants were then collected and the level of p24 in these supernatants was measured by ELISA (R&D Systems).
Background: In an ELISA, binding on a coated surface is turned into a signal by an enzyme label.

In the case of “2,3-diacyl-glucosamine-1-phosphate [lipid X]”, the “pyrogenicity / toxicity in mice” value with mice is “non-pyrogenic”.

`Cc1cn([C@H]2C[C@H](N=[N+]=[N-])[C@@H](CO)O2)c(=O)[nH]c1=O` [AZT, 3′-azido-2′,3′-dideoxythymidine]: the “effect on viral load” value in the series with HIV-1 is “about 1 log reduction”.

In the series with human PBMCs [1], `CCCCCCCCCCC[C@@H](O)CC(=O)N[C@H]1[C@H](OC[C@H]2O[C@H](OP(=O)(O)O)[C@H](NC(=O)C[C@H](O)CCCCCCCCCCC)[C@@H](OC(=O)C[C@H](O)CCCCCCCCCCC)[C@@H]2O)O[C@H](CO)[C@@H](OP(=O)(O)O)[C@@H]1OC(=O)C[C@H](O)CCCCCCCCCCC` [Lipid IVA] registered an IL-1β of 13 ± 1 pg/mL and an IL-6 of 7581 ± 20 pg/mL. Moreover, in the series on human PBMCs [2], the TNFα is less than 30 pg/mL. Moreover, the “induction of β chemokines” value in the series on human PBMCs [3] was “WITHOUT INDUCING […] OF β CHEMOKINES”. Also, the “replication of HIV-1BAL (p24 in supernatants)” value with HIV-1BAL was “suppresses the replication of HIV-1BAL in a dose-dependent manner”.

Consider `CCCCCC/C=C/CCCCCC(=O)O[C@H](CCCCCCCCCCC)CC(=O)NC1C(OCC2OC(OP(=O)(O)O)C(NC(=O)CC(=O)CCCCCCCCCCC)C(OC(=O)C[C@H](O)CCCCCCC)C2O)OC(CO)C(OP(=O)(O)O)C1OC(=O)C[C@H](O)CCCCCCC` (some centres unmarked) [RsDPLA, R. sphaeroides diphosphoryl lipid A], for which, in the series on human PBMCs [3] (human PBMCs), the “level of RANTES after stimulation” value is “not significantly elevated”. In addition, in the series on human PBMCs [3] (human PBMCs, various doses), the MIP-1α secretion result is “stimulated the secretion of MIP-1α and MIP-1β in a dose-dependent manner”; the MIP-1β secretion entry was “stimulated the secretion of MIP-1α and MIP-1β in a dose-dependent manner”. Moreover, the “time of peak production of chemokines (MIP-1α, MIP-1β) after stimulation” value with human PBMCs [3] (supernatants 8, 16, 24 and 48 hr after stimulation) was 24 h.
